Source: patent US7560102B2, “Method for reducing neuronal degeneration so as to ameliorate the effects of injury or disease” (Yeda Research and Development Co., Ltd, priority 1998, dated 2009)

What was measured:
[1] = test system: retinal ganglion cells (RGCs); assay: Optic nerve crush injury after immunization with MOG p35-55, retrograde labeling of RGCs; assay type: in vivo, rat; settings: 50 μg/animal with IFA intradermally in footpads ten days prior to crush; two weeks after injury
Method: FIG. 10 is a graph illustrating inhibition of secondary degeneration after optic nerve crush injury in adult rats. See text, Example 3, for experimental details. Rats were injected intradermally through the footpads with a 21-mer peptide based on MOG amino acid residues 35-55 (MOG p35-55) (([…], chemically synthesized at the Weizmann Institute of Science, Rehovot, Israel) or PBS ten days prior to optic nerve crush injury or MOG p35-55 in the absence of crush injury. MOG p35-55 was administered with IFA. Surviving optic nerve fibers were monitored by retrograde labeling of RGCs. The number of RGCs in rats injected with PBS or MOG p35-55 was expressed as a percentage of the total number of neurons in rats injected with MOG p35-55 in the absence of crush injury.
Rats were injected intradermally in the footpads with MOG p35-55 (50 μg/animal) and IFA, or PBS, ten days prior to optic nerve crush injury. RGCs were assessed two weeks after injury using retrograde labeling as described above. The number of RGCs in rats injected with PBS or MOG p35-55 was expressed as a percentage of the total number of neurons in rats injected with MOG p35-55 in the absence of crush injury.

contused spinal cord = assay: Spinal cord contusion, post-traumatic immunization with Nogo p472, BBB hindlimb motor score; assay type: in vivo, SPD rats
[2] = test system: retinal ganglion cells (RGCs); assay: Optic nerve crush injury after oral MBP, retrograde labeling of RGCs; assay type: in vivo, Lewis rats; settings: fed antigen from ten days before mild crush injury (FIG. 14)
Method: MBP (Sigma, Israel) (1 mg in 0.5 ml saline) was administered orally to adult rats by gavage using a blunt needle. MBP was administered 5 times, i.e., every third day beginning two weeks prior to optic nerve crush injury. Surviving optic nerve fibers were monitored by retrograde labeling of RGCs. The number of RGCs in treated rats was expressed as a percentage of the total number of neurons in untreated rats following the injury.
Lewis rats were fed 1 mg MBP daily, or every other day, or 4 times a day at two-hour intervals for five consecutive days. Control animals were given PBS or the non-self antigen OVA Sigma, Israel). Ten days after the start of MBP ingestion, the right optic nerves were subjected to a calibrated mild crush injury. Two weeks later the RGCs were retrogradely labelled by application of the fluorescent lipophilic dye 4-Di-10-Asp(Molecular Probes Europe BV, Netherlands), distally to the site of injury, as described. […] Six days after dye application, the retina was detached from the eye, prepared as a flattened whole mount in 4% paraformaldehyde solution, and examined for labeled RGCs by fluorescence microscopy. RGCs were counted from three different regions in the retina. The results are expressed as normalized percentage of each retina to untreated injured animal mean of the same experiment. […]

Molecule: MOG p35-55: 21-mer peptide based on amino acids 35-55 of MOG, chemically synthesized, given with IFA (MEVGWYRSPFSRVVHLYRNGK; given with IFA; UniProt Q61885 63-83, looked up, fragment)
- number of labeled RGCs compared to animals receiving PBS [1]: about 12.5 fold

Molecule: p472: 18-mer peptide, residues 623-640 of rat Nogo-A (SEQ ID NO:19), emulsified in CFA (SYDSIKLEPENPPPYEEA; emulsified in CFA; listed as Rattus norvegicus)
- overall functional recovery compared to control rats (PBS in CFA or PBS only) (contused spinal cord; 100 μg/rat in CFA s.c. after contusion, female and male rats, P<0.01): significantly improved
- day from which hind limb locomotion was significantly better than PBS-treated controls (contused spinal cord; female rats, 50 mm, boosted one week after injury): 25 days
- day after injury from which locomotor performance was significantly better than PBS+CFA-treated controls (contused spinal cord; male rats): 11 days

B1: OVA: non-self antigen ovalbumin (Sigma) fed to control rats (protein, UniProt P01012 2-386, looked up)
Ovalbumin: GSIGAASMEFCFDVFKELKVHHANENIFYCPIAIMSALAMVYLGAKDSTRTQINKVVRFDKLPGFGDSIEAQCGTSVNVHSSLRDILNQITKPNDVYSFSLASRLYAEERYPILPEYLQCVKELYRGGLEPINFQTAADQARELINSWVESQTNGIIRNVLQPSSVDSQTAMVLVNAIVFKGLWEKAFKDEDTQAMPFRVTEQESKPVQMMYQIGLFRVASMASEKMKILELPFASGTMSMLVLLPDEVSGLEQLESIINFEKLTEWTSSNVMEERKIKVYLPRMKMEEKYNLTSVLMAMGITDVFSSSANLSGISSAESLKISQAVHAAHAEINEAGREVVGSAEAGVDAASVSEEFRADHPFLFCIKHIATNAVLFFGRCVSP
- number of surviving RGCs two weeks after optic nerve injury vs control group [2]: ns
